Assay results: ChEMBL document CHEMBL1139065, “Pyrazole-based factor Xa inhibitors containing N-arylpiperidinyl P4 residues” (Bioorg Med Chem Lett, 2007)

Key:
[1] = Half life in dog at 0.2 mg/kg, po; conditions: in vivo
Prothrombin = Prothrombin (Homo sapiens, UniProt P00734); test: Inhibition of thrombin
[2] = Apparent permeability across Caco-2 cells; conditions: human
Trypsin = Trypsin (Homo sapiens, UniProt P07477+P07478+P35030); test: Inhibition of trypsin; type: protein assay
Coagulation factor X = Coagulation factor X (Homo sapiens, UniProt P00742); test: Inhibition of human factor 10a
Plasma = test: Anticoagulant potency in human plasma assessed as concentration required to double prothrombin time; type: functional
[3] = Half life in human liver microsomes
in vivo = conditions: dog, po, 0.2 mg/kg
[4] = Clearance in dog at 0.5 mg/kg, iv; conditions: in vivo
[5] = Metabolic stability in human liver microsomes assessed as intrinsic clearance; type: ADME, Microsome
Oryctolagus cuniculus = species: Oryctolagus cuniculus; test: Antithrombotic activity against rabbit arterio-venous shunt thrombosis model; type: functional, organism-based

Coagulation factor X, sequence (P00742 41-179 limits assumed): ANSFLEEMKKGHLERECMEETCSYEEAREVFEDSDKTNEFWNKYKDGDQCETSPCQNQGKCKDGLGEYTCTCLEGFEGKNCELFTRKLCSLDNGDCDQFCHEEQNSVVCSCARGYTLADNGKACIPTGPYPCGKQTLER
Coagulation factor X, sequence (P00742 235-488 limits assumed): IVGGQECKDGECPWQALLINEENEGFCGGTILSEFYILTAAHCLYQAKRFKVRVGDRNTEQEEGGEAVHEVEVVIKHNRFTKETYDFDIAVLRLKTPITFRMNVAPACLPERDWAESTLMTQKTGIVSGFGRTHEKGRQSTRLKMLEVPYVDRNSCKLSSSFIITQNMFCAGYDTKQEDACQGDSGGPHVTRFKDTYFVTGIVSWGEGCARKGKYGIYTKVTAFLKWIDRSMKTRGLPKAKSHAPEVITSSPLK

Row | Ki (Coagulation factor X) | SMILES | PT (Plasma) | further results
1 | 0.35 nM | COc1ccc(-n2nc(C(N)=O)c3c2C(=O)N(C2CCN(c4ccccc4S(C)(=O)=O)CC2)CC3)cc1 | 4.2 µM | half-life [1]: 0.8 h; Ki (Prothrombin): 1200 nM; Papp [2]: 1.5 ×10⁻⁶ cm/s; Ki (Trypsin): > 20000 nM; half-life [3]: 1.95 h; bioavailability (in vivo): 78%; clearance [4]: 3.83 mL/min/kg
2 | 81 nM | COc1ccc(-n2nc(C(N)=O)c3c2C(=O)N(C2CCN(c4ccccc4CN(C)S(C)(=O)=O)CC2)CC3)cc1 |  | 
3 | 2000 nM | CS(=O)(=O)c1ccccc1[C@H]1CC[C@@H](NC(=O)c2cc(C(F)(F)F)nn2-c2cccc(CN)c2)CC1 |  | 
4 | 0.26 nM | COc1ccc(-n2nc(C(N)=O)c3c2C(=O)N(C2CCN(c4ccccc4CN4CCCC4)CC2)CC3)cc1 | 1.2 µM | 
5 | 23 nM | COc1ccc(-n2nc(C(N)=O)c3c2C(=O)N(C2CCN(c4ccccc4CN(C)C(C)=O)CC2)CC3)cc1 |  | 
6 | 1.7 nM | CS(=O)(=O)c1ccccc1N1CCC(NC(=O)c2cc(C(F)(F)F)nn2-c2ccc3onc(N)c3c2)CC1 | 2.8 µM | half-life [1]: 1.3 h; Papp [2]: 1.7 ×10⁻⁶ cm/s; microsomal CLint [5]: 51 µL/min/mg; bioavailability (in vivo): 24%; clearance [4]: 18.3 mL/min/kg
7 | 0.7 nM | CCN(C)Cc1ccccc1N1CCC(NC(=O)c2cc(C(F)(F)F)nn2-c2ccc3onc(N)c3c2)CC1 | 1.1 µM | half-life [1]: 2.5 h; Papp [2]: 2.7 ×10⁻⁶ cm/s; microsomal CLint [5]: 29 µL/min/mg; bioavailability (in vivo): 23%; clearance [4]: 71.7 mL/min/kg
8 | 29 nM | COc1ccc(-n2nc(C(F)(F)F)cc2C(=O)NC2CCN(c3ccccc3CN3CCCC3)CC2)cc1 |  | 
9 | 5.7 nM | CS(=O)(=O)c1ccccc1[C@H]1CC[C@H](NC(=O)c2cc(C(F)(F)F)nn2-c2cccc(CN)c2)CC1 |  | 
10 | 0.41 nM | COc1ccc(-n2nc(C(N)=O)c3c2C(=O)N(C2CCN(c4ccccc4CN(C)C)CC2)CC3)cc1 | 1 µM | 
11 | 8.8 nM | COc1ccc(-n2nc(C(F)(F)F)cc2C(=O)NC2CCN(c3ccccc3CN(C)C)CC2)cc1 |  | 
12 | 14 nM | COc1ccc(-n2nc(C(F)(F)F)cc2C(=O)NC2CCN(c3ccccc3S(C)(=O)=O)CC2)cc1 |  | 
13 | 0.87 nM | COc1ccc(-n2nc(C(N)=O)c3c2C(=O)N(C2CCN(c4ccccc4CN4CCC[C@@H]4O)CC2)CC3)cc1 | 2.5 µM | 
14 | 0.57 nM | COc1ccc(-n2nc(C(N)=O)c3c2C(=O)N(C2CCN(c4ccccc4CN4CCOCC4)CC2)CC3)cc1 | 3.5 µM | 
15 | 1 nM | CNCc1ccccc1N1CCC(N2CCc3c(C(N)=O)nn(-c4ccc(OC)cc4)c3C2=O)CC1 | 1.8 µM | 
16 | 4.9 nM | CS(=O)(=O)c1ccccc1N1CCC(NC(=O)c2cc(C(F)(F)F)nn2-c2cccc(CN)c2)CC1 |  | 
17 | 6.6 nM | COc1ccc(-n2nc(C(F)(F)F)cc2C(=O)NC2CCN(c3ccccc3CN3CCOCC3)CC2)cc1 |  | 
18 | 2.4 nM | CS(=O)(=O)c1ccccc1N1CCC(NC(=O)c2cc(C(F)(F)F)nn2-c2ccccc2CN)CC1 |  | 
19 | 3.9 nM | COc1ccc(-n2nc(C(N)=O)c3c2C(=O)N(C2CCN(c4ccccc4S(N)(=O)=O)CC2)CC3)cc1 |  | 
20 | 0.73 nM | Nc1noc2ccc(-n3nc(C(F)(F)F)cc3C(=O)NC3CCN(c4ccccc4CN4CCC[C@H]4O)CC3)cc12 | 0.83 µM | Papp [2]: 0.2 ×10⁻⁶ cm/s; microsomal CLint [5]: 40 µL/min/mg; clearance [4]: 36.7 mL/min/kg
21 | 0.67 nM | CNCc1ccccc1N1CCC(NC(=O)c2cc(C(F)(F)F)nn2-c2ccc3onc(N)c3c2)CC1 | 1.2 µM | half-life [1]: 0.3 h; Papp [2]: 0.1 ×10⁻⁶ cm/s; bioavailability (in vivo): 1.7%; clearance [4]: 107 mL/min/kg
22 | 0.61 nM | Nc1noc2ccc(-n3nc(C(F)(F)F)cc3C(=O)NC3CCN(c4ccccc4CN4CCCC4)CC3)cc12 | 0.84 µM | half-life [1]: 5 h; Papp [2]: 1.3 ×10⁻⁶ cm/s; microsomal CLint [5]: 29 µL/min/mg; EC50 (Oryctolagus cuniculus): 740 nM; bioavailability (in vivo): 26%; clearance [4]: 48.3 mL/min/kg
23 | 92 nM | CS(=O)(=O)c1ccccc1N1CCC(NC(=O)c2cc(C(F)(F)F)nn2-c2ccc3onc(N)c3c2)CC1=O (configuration not stated) |  | 
24 | 3 nM | CS(=O)(=O)c1ccccc1C1=CCC(NC(=O)c2cc(C(F)(F)F)nn2-c2cccc(CN)c2)CC1 (configuration not stated) |  | 
25 | 0.26 nM | CCN(CC)Cc1ccccc1N1CCC(N2CCc3c(C(N)=O)nn(-c4ccc(OC)cc4)c3C2=O)CC1 | 1.5 µM | 
